Experiments:
[1] = tested on: Honeybees (Apis mellifera scutellata); assay: Classical conditioning of the proboscis extension response (PER): learning, 24 h memory retention, latency; flavonoids vs imidacloprid; type: in vivo
Description: Honeybees (Apis mellifera scutellata) were captured from established hives at the Apiary of the Pontificia Universidad Javeriana (Bogota, Colombia). Foragers were collected while leaving to forage between 8:00 am and 10:00 am (Matsumoto et al., J Neurosci Methods. 211(1):159-67. 2012). Bees were maintained in individual plastic chambers under laboratory conditions (photoperiod followed seasonal pattern; relative humidity: 63%; temperature: 18° C.). Food was provided once a day in a volume of 20 μL and varied in composition according to experimental treatments.
Control (2M sugar water): fed once a day (20 μL) for three consecutive days;
Quercetin (6.6 mM quercetin (Sigma-Aldrich: Q4951)-sucrose-water with DMSO 1% (Sigma-Aldrich: D8418): fed once a day for three days;
Rutin (1 mM rutin (Sigma-Aldrich R5143)-sucrose-water with DMSO 1%: fed once a day for three days;
Imidacloprid (1.16 nM Imidacloprid (Bayer)-sucrose-water: fed as a single dose (20 μL) 1.5 h before training;
Quercetin-Imidacloprid: bees received the quercetin treatment (see above) and were fed Imidacloprid 1.5 h before training; and
Rutin-Imidacloprid: bees received the rutin treatment (see above) and were fed Imidacloprid 1.5 h before training.
Bees were trained using classical conditioning of the proboscis extension response (PER), a broadly used method to study learning and memory in bees. Briefly, bees received a soft current of clean air for 15 seconds to allow bees to accommodate. Then a soft current of 1-hexanol (Sigma-Aldrich: 471402) was injected for 10 seconds. Six seconds after injection of 1-hexanol, one of the antennae was stimulated with sucrose water (50% w/w), which leads to the reflexive extension of the proboscis, and the bee was allowed to drink for 4 seconds. Thus, the reward and the stimulus overlapped for four seconds. This sequence, recognized as a training trial, was repeated eight times. Time was determined using a metronome (2 Hz). Memory retention was tested 24 hours after the eight training trials. […] 12 bees were trained each session. Training was conducted by an experimenter blind to treatment.
Learning was assessed from the total number of conditioned responses across the eight trials. Thus, each bee received a learning score between 0-7 (by definition, bees cannot show a learned response at the first trial). After 24 h, memory retention was assessed as the response to the presentation of 1-hexanol without a sucrose reward. Latency of response was quantified as the time between the onset of 1-hexanol stimulation and the onset of a response that led to a full extension of proboscis. Only bees being responsive to sucrose water across all training trials and the memory retention test were considered for analyses. Learning scores were compared across treatments using a Mann-Whitney test as data were not normally distributed (Shapiro-Wilk W test for the hypothesis that the data is from a Normal distribution: P<0.05 for all treatments). Comparisons of the learning score of bees across all treatments relative to Control bees were conducted using the Steel method adjusted as one or two-tailed tests. Additional post hoc comparisons were performed between Imid and Quer+Imid bees and between Imid and Rut+Imid bees. Memory retention was compared across groups using an overall Chi-Square test and independent tests for planned comparisons were performed using adjusted Wald tests for proportions. In all cases error due to multiple comparisons was controlled using the False Discovery Rate one stage method and adjusted p-values (q-values) are presented (Benjamini & Hochberg, Journal of the Royal Statistical Society. Series B (Methodological), 57(1):289-300. 1995; Pike, N., Methods in Ecology and Evolution, 2(3):278-282. 2011). All analyses were conducted using JMP v.14.0 (SAS Institute Inc). […]

[2] = tested on: AChE; conditions: literature report; cited from earlier work
[3] = tested on: butyrylcholinesterase (BChE); conditions: literature report; cited from earlier work

O=c1c(O)c(-c2ccc(O)c(O)c2)oc2cc(O)cc(O)c12 [Quercetin]
memory retention, proportion difference relative to Control bees (Adjusted Wald test) ([1]; conditioned PER after 24 h): −0.13 | latency of response during learning acquisition relative to Control bees ([1]; honey bees): not significantly different from Control | learning scores relative to bees in the Imid group ([1]; honey bees prophylactically fed flavonoid for three days, then imidacloprid 1.5 h before training): significantly higher learning scores | learning scores relative to Control bees ([1]; honey bees, 8 trials, score 0-7, quercetin 6.6 mM or rutin 1 mM once a day for three days, imidacloprid 1.16 nM 20 μL 1.5 h before training): significantly higher learning scores | inhibition of AChE [2]: concentration-dependent inhibition ability | inhibition of butyrylcholinesterase (BChE) [3]: concentration-dependent inhibition ability

Source: patent US20220339178A1, “COMPOSITIONS AND METHODS FOR COGNITIVE PROTECTION OF POLLINATORS AGAINST PESTICIDES” (priority 2019, published 2022)
